Results on 16 molecules are retold here after paper PMC6099768, “Application of Docking Analysis in the Prediction and Biological Evaluation of the Lipoxygenase Inhibitory Action of Thiazolyl Derivatives of Mycophenolic Acid” (Molecules : A Journal of Synthetic Chemistry and Natural …, 2018).

The target in this assay is T1, soybean LOX type 1b (sLOX-1) (Glycine max, UniProt P08170).
T1 sequence (P08170 1-839): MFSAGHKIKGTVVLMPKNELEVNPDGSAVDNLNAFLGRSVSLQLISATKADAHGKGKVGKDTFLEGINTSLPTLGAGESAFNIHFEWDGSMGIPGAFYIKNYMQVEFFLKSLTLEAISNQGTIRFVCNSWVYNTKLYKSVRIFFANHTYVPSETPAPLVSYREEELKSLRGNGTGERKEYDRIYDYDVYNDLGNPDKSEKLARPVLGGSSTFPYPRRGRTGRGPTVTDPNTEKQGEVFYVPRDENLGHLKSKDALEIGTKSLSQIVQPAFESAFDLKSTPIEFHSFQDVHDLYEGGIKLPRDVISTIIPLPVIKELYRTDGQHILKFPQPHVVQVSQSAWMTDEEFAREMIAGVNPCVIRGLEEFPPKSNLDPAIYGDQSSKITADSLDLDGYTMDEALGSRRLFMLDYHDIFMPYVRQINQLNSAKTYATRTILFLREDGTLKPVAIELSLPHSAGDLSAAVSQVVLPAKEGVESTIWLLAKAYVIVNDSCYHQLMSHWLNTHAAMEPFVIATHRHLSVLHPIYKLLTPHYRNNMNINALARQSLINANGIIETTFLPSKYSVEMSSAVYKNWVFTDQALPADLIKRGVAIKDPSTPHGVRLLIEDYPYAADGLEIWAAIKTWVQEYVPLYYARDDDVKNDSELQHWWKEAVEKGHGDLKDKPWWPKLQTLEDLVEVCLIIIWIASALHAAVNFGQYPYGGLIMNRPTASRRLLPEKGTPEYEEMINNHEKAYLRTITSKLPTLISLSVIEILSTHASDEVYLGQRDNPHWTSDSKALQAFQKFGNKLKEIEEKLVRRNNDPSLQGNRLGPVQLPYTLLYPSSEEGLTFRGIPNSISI
The assay is described as follows: Soybean lipoxygenase inhibition study in vitro. The class given is biochemical. As for the experimental part:
For the evaluation of lipoxygenase inhibition soybean LOX type 1b was used as reported previously. The selection was based on the structural and functional similarity of sLOX-1 with mammalian LOX [36, 50, 51, 52] which makes it the most commonly used LOX enzyme in drug screening, followed by sLOX-3 [40].
The assay conditions were as previously reported. Different compound concentrations were used for the calculation of IC50 values. The experiments were performed in triplicate.

The mark [1] stands for this setting: printed as negative values (−log of IC50 in µM), read-out: pIC50 (converted).
[2] abbreviates: soybean LOX type 1b, means of three determinations, deviation <10% of the mean, read-out: IC50.
Setting [3] is: Table 6, unit inferred, same values as Table 5, read-out: IC50.

Where two headings read alike, the source gives them in different places.

With `COc1c(C)c2c(c(O)c1C/C=C(\C)CCC(=O)Nc1nccs1)C(=O)OC2` [Compound 1, (E)-6-(4-Hydroxy-6-methoxy-7-methyl-3-oxo-1,3-dihydroisobenzofuran-5-yl)-4-methyl-N-(thiazol-2-yl)hex-4-enamide], the IC50 under setting [1] is 26.2 µM and the IC50 under setting [2] was determined as 26.3 µM.
Take `COc1c(C)c2c(c(O)c1C/C=C(\C)CCC(=O)Nc1ncc(C)s1)C(=O)OC2` [Compound 2, (E)-6-(4-Hydroxy-6-methoxy-7-methyl-3-oxo-1,3-dihydroisobenzofuran-5-yl)-4-methyl-N-(5-methylthiazol-2-yl)hex-4-enamide]: the IC50 is 22.5 µM under setting [3], 22.5 µM under setting [1] and 22.5 µM under setting [2].
`COc1c(C)c2c(c(O)c1C/C=C(\C)CCC(=O)Nc1nc(C)c(C)s1)C(=O)OC2` [Compound 3, (E)-N-(4,5-Dimethylthiazol-2-yl)-6-(4-hydroxy-6-methoxy-7-methyl-3-oxo-1,3-dihydroisobenzofuran-5-yl)-4-methylhex-4-enamide]: the IC50 by setting is: under setting [1], 43.8 µM; under setting [2], 43.7 µM.
With `COc1c(C)c2c(c(O)c1C/C=C(\C)CCC(=O)Nc1nc(C)cs1)C(=O)OC2` [Compound 4, (E)-6-(4-Hydroxy-6-methoxy-7-methyl-3-oxo-1,3-dihydroisobenzofuran-5-yl)-4-methyl-N-(4-methylthiazol-2-yl)hex-4-enamide], the IC50 by setting is: under setting [3], 31.2 µM; under setting [1], 31.3 µM; under setting [2], 31.2 µM.
Consider `CCOC(=O)c1sc(NC(=O)CC/C(C)=C/Cc2c(O)c3c(c(C)c2OC)COC3=O)nc1C` [Compound 5, (E)-Ethyl-2-(6-(4-hydroxy-6-methoxy-7-methyl-3-oxo-1,3-dihydroisobenzofuran-5-yl)-4-methylhex-4-enamido)-4-methylthiazole-5-carboxylate], for which the IC50 reads like this: under setting [3], 22.5 µM; under setting [2], 22.5 µM.
For the molecule `CCOC(=O)Cc1csc(NC(=O)CC/C(C)=C/Cc2c(O)c3c(c(C)c2OC)COC3=O)n1` [Compound 6, (E)-Ethyl-2-(2-(6-(4-hydroxy-6-methoxy-7-methyl-3-oxo-1,3-dihydroisobenzofuran-5-yl)-4-methylhex-4-enamido)thiazol-4-yl)acetate], the IC50 by setting is: under setting [1], 30 µM; under setting [2], 30 µM.
`COc1c(C)c2c(c(O)c1C/C=C(\C)CCC(=O)Nc1nc(-c3ccncc3)cs1)C(=O)OC2` [Compound 7, (E)-6-(4-Hydroxy-6-methoxy-7-methyl-3-oxo-1,3-dihydroisobenzofuran-5-yl)-4-methyl-N-(4-(pyridin-4-yl)thiazol-2-yl)hex-4-enamide]: the IC50 under setting [1] is 78.7 µM and the IC50 under setting [2] turned out to be 78.8 µM.
With `COc1c(C)c2c(c(O)c1C/C=C(\C)CCC(=O)Nc1nc(-c3cccnc3)cs1)C(=O)OC2` [Compound 8], the IC50 under setting [3] amounted to 90 µM, the IC50 under setting [1] was 89.9 µM and the IC50 under setting [2] stood at 90 µM.
On to `COc1c(C)c2c(c(O)c1C/C=C(\C)CCC(=O)Nc1nc(-c3ccccn3)cs1)C(=O)OC2` [Compound 9, (E)-6-(4-Hydroxy-6-methoxy-7-methyl-3-oxo-1,3-dihydroisobenzofuran-5-yl)-4-methyl-N-(4-(pyridin-2-yl)thiazol-2-yl)hex-4-enamide], for which the IC50 under setting [3] turned out to be 2.5 µM, the IC50 under setting [1] is 2.5 µM and the IC50 under setting [2] is 2.5 µM.
Regarding `COc1c(C)c2c(c(O)c1C/C=C(\C)CCC(=O)Nc1nc3ccccc3s1)C(=O)OC2` [Compound 10, (E)-N-(Benzo[d]thiazol-2-yl)-6-(4-hydroxy-6-methoxy-7-methyl-3-oxo-1,3-dihydroisobenzofuran-5-yl)-4-methylhex-4-enamide], the IC50 reads like this: under setting [1], 89.9 µM; under setting [2], 90 µM.
In the case of `COc1ccc2nc(NC(=O)CC/C(C)=C/Cc3c(O)c4c(c(C)c3OC)COC4=O)sc2c1` [Compound 11, (E)-6-(4-Hydroxy-6-methoxy-7-methyl-3-oxo-1,3-dihydroisobenzofuran-5-yl)-N-(6-methoxybenzo[d]thiazol-2-yl)-4-methylhex-4-enamide], the IC50 under setting [3] was found to be 156 µM, the IC50 under setting [1] is 156 µM and the IC50 under setting [2] was 156 µM.
On to `COc1c(C)c2c(c(O)c1C/C=C(\C)CCC(=O)Nc1nc3c(s1)CCCC3)C(=O)OC2` [Compound 12, (E)-6-(4-Hydroxy-6-methoxy-7-methyl-3-oxo-1,3-dihydroisobenzofuran-5-yl)-4-methyl-N-(4,5,6,7-tetrahydrobenzo[d]thiazol-2-yl)hex-4-enamide], for which the IC50 under setting [2] is 61.2 µM.
Still for that read-out and setting: next, `COc1c(C)c2c(c(O)c1C/C=C(\C)CCC(=O)Nc1nc3c(s1)CCCCC3)C(=O)OC2` [Compound 13, (E)-6-(4-Hydroxy-6-methoxy-7-methyl-3-oxo-1,3-dihydroisobenzofuran-5-yl)-4-methyl-N-(5,6,7,8-tetrahydro-4H-cyclohepta[d]thiazol-2-yl)hex-4-enamide]: 25 µM.
The same measure, in the same setting: next, `COc1c(C)c2c(c(O)c1C/C=C(\C)CCC(=O)Nc1nc3c(s1)CCC3)C(=O)OC2` [Compound 14, (E)-N-(5,6-Dihydro-4H-cyclopenta[d]thiazol-2-yl)-6-(4-hydroxy-6-methoxy-7-methyl-3-oxo-1,3-dihydroisobenzofuran-5-yl)-4-methylhex-4-enamide]: 31.2 µM.
On to `COc1c(C)c2c(c(OC)c1C/C=C(\C)CCC(=O)Nc1nccs1)C(=O)OC2` [Compound 15, (E)-6-(4,6-Dimethoxy-7-methyl-3-oxo-1,3-dihydroisobenzofuran-5-yl)-4-methyl-N-(thiazol-2-yl)hex-4-enamide], for which the IC50 under setting [2] was 96.3 µM.
In the case of `COc1c(C)c2c(c(OC)c1C/C=C(\C)CCC(=O)Nc1ncc(C)s1)C(=O)OC2` [Compound 16, (E)-6-(4,6-Dimethoxy-7-methyl-3-oxo-1,3-dihydroisobenzofuran-5-yl)-4-methyl-N-(5-methylthiazol-2-yl)hex-4-enamide], the IC50 under setting [2] was 90 µM.
